We go through eleven compounds from patent publication US20250163054A1, “SUBSTITUTED BICYCLIC HETEROARYL COMPOUNDS USEFUL AS INHIBITORS OF TLR9” (Bristol-Myers Squibb Company, priority 2022, published 2025).

What all share (assay type): cell-based
The target of one assay is T1, human TLR9 (Homo sapiens, UniProt Q9NR96).
T1 construct: host or cells: HEK-Blue cells (HEK293-derived reporter line)
T1 sequence (Q9NR96 26-1032): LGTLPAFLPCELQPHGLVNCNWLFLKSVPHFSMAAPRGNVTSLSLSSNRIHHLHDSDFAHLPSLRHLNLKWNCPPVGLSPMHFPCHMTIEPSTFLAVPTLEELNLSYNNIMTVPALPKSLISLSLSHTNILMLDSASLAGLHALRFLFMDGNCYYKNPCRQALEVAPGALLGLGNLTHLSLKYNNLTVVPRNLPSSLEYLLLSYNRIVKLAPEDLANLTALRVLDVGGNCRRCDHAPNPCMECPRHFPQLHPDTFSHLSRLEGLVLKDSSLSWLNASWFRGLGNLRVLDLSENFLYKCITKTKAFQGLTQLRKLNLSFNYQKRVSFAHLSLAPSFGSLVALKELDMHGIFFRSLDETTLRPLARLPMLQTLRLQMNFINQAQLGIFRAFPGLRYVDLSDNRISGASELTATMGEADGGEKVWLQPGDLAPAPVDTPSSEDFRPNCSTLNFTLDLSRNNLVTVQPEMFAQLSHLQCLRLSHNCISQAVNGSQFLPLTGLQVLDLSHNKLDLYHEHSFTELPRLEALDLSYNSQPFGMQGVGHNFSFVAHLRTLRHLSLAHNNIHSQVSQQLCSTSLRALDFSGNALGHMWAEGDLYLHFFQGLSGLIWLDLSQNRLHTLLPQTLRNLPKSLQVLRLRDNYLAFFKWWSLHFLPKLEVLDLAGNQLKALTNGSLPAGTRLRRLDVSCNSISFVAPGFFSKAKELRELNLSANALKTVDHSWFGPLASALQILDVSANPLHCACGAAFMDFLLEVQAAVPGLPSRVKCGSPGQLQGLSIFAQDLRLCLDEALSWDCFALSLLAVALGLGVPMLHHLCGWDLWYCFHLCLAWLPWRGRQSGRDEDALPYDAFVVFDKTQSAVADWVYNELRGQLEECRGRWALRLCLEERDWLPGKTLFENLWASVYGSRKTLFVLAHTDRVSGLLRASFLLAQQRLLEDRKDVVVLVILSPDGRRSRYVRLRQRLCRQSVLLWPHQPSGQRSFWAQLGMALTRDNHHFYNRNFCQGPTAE
Description: TLR7/8/9 Inhibition Reporter Assays (TLR9). To be noted: HEK-Blue cells overexpressing human TLR9, SEAP reporter, stimulated with TLR9 ligand ODN2006. A digest of the protocol:
(§1)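 HEK-Blue cells overexpressing human TLR7, TLR8 or TLR9 with NF-κB/AP-1-driven SEAP reporter, pre-treated 60 min with compound ([…]). Stimulated with […] (TLR7), […] (TLR8) or ODN2006 200 nM (TLR9), then 22 h at 37° C; SEAP measured, % inhibition relative to agonist-plus-DMSO and known-inhibitor wells.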

A further assay has as its target T2, human TLR7 (Homo sapiens, UniProt Q9NYK1).
T2 construct: host or cells: HEK-Blue cells (HEK293-derived reporter line)
T2 sequence (Q9NYK1 27-1049): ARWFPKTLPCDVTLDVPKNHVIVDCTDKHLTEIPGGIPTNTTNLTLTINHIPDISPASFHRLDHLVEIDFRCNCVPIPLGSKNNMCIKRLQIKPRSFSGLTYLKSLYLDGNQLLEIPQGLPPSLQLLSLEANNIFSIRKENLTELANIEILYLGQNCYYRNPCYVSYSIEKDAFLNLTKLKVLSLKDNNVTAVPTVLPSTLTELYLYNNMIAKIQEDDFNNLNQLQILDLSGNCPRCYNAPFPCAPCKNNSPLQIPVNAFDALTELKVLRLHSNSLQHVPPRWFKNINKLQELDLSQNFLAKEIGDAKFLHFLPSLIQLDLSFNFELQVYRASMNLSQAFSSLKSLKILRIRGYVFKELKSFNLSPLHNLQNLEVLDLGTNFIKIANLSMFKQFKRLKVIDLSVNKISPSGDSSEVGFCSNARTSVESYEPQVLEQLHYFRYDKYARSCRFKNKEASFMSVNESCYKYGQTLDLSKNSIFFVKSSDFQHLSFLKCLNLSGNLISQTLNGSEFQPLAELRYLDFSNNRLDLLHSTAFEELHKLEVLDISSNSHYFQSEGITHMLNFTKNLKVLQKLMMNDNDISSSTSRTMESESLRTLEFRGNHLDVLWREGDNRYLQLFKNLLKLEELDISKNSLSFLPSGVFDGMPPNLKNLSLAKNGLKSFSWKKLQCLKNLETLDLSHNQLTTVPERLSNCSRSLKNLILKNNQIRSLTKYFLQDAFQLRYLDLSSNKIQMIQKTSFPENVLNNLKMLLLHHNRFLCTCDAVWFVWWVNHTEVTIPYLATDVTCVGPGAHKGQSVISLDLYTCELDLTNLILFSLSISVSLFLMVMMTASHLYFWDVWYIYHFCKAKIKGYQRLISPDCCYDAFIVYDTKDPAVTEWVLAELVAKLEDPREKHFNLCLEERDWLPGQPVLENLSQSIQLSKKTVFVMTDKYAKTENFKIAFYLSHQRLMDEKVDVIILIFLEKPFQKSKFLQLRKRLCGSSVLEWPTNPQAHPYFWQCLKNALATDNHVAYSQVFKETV
Briefly: TLR7/8/9 Inhibition Reporter Assays (TLR7). The following applies: HEK-Blue cells overexpressing human TLR7, SEAP reporter, stimulated with TLR7 ligand gardiquimod. An outline of the steps: as §1

The target of a further assay is T3, human TLR8 (Homo sapiens, UniProt Q9NR97).
T3 construct: host or cells: HEK-Blue cells (HEK293-derived reporter line)
T3 sequence (Q9NR97 27-1041): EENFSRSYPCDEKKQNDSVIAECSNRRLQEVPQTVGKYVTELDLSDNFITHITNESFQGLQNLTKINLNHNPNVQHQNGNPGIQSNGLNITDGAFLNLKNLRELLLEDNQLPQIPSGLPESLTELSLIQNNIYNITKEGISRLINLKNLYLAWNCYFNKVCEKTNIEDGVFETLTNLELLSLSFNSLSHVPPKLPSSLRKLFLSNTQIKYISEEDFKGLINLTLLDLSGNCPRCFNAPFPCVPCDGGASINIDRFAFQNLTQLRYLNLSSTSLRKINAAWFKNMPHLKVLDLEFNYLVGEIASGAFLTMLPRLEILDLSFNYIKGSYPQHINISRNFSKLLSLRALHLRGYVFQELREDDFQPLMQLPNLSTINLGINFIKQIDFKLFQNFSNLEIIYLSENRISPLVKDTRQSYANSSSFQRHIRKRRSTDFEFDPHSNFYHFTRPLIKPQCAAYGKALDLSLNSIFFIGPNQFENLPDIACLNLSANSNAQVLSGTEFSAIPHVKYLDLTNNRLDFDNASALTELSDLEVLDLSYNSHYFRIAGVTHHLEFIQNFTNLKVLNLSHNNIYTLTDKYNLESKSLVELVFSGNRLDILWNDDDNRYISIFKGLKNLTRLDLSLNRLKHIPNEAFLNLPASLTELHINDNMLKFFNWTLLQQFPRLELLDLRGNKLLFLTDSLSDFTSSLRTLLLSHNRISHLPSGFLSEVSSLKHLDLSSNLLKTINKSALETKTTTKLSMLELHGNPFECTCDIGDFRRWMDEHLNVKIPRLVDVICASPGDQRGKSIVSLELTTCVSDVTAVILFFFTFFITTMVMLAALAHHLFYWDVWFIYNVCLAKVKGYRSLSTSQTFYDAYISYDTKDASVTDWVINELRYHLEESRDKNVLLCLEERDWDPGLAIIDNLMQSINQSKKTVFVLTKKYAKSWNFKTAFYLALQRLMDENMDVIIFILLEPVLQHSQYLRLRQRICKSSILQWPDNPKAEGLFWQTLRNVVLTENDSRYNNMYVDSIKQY
Briefly: TLR7/8/9 Inhibition Reporter Assays (TLR8). To be noted: HEK-Blue cells overexpressing human TLR8, SEAP reporter, stimulated with TLR8 ligand R848. A digest of the protocol: as §1

As to `Cc1cc(-c2nc3c(C)nc(-c4ccc(N5CCN(CC(C)C)CC5)cc4)cc3n2C)cc(C)n1` [Example 14, 2-(2,6-dimethylpyridin-4-yl)-6-(4-(4-isobutylpiperazin-1-yl)phenyl)-1,4-dimethyl-1H-imidazo[4,5-c]pyridine], the IC50 on human TLR9 was determined as 0.38 µM; against human TLR7, 4.5 µM; against human TLR8 it was 4.6 µM.
For `Cc1nc(-c2ccc(CN3CCN(C(C)C)CC3)cc2)cc2c1nc(-c1ccc(S(C)(=O)=O)cc1)n2C` [Example 5, 6-(4-((4-isopropylpiperazin-1-yl)methyl)phenyl)-1,4-dimethyl-2-(4-(methylsulfonyl)phenyl)-1H-imidazo[4,5-c]pyridine] the same measures were 0.79 µM, 7.2 µM and 22 µM.
Regarding `COc1ccc(-c2nc3cnc(-c4ccc(N5CCC6(CC5)CN(CC(C)C)C6)cc4)cc3n2C2CC2)cc1OC` [Example 61, 1-cyclopropyl-2-(3,4-dimethoxyphenyl)-6-(4-(2-isobutyl-2,7-diazaspiro[3.5]nonan-7-yl)phenyl)-1H-imidazo[4,5-c]pyridine], the IC50 against human TLR9 was 0.16 µM; on human TLR7, 12 µM; at human TLR8, 12 µM.
Turning to `CC(C)CN1C[C@@H]2CN(c3ccc(-c4cc5c(cn4)nc(-c4ccc(S(C)(=O)=O)cc4)n5C4CC4)cc3)C[C@@H]2C1` [Example 88, 1-cyclopropyl-6-(4-((3aR,6aS)-5-isobutylhexahydropyrrolo[3,4-c]pyrrol-2(1H)-yl)phenyl)-2-(4-(methylsulfonyl)phenyl)-1H-imidazo[4,5-c]pyridine], the IC50 on human TLR9 turned out to be 0.33 µM; on human TLR7 it was 3.4 µM; against human TLR8, 1.1 µM.
For `COCCN1CC2(C1)CN(c1ccc(-c3cc4c(nc(-c5ccc(S(C)(=O)=O)cc5)n4C)c(C)n3)cc1)C2` [Example 104, 6-(4-(6-(2-methoxyethyl)-2,6-diazaspiro[3.3]heptan-2-yl)phenyl)-1,4-dimethyl-2-(4-(methylsulfonyl)phenyl)-1H-imidazo[4,5-c]pyridine] the same measures were 0.21 µM, 7.7 µM and 16 µM.
For the compound `Cc1nc(-c2ccc(N3CC4(C3)CN(C3CCC3)C4)cc2)cc2c1nc(-c1ccc(S(C)(=O)=O)cc1)n2C` [Example 79, 6-(4-(6-cyclobutyl-2,6-diazaspiro[3.3]heptan-2-yl)phenyl)-1,4-dimethyl-2-(4-(methylsulfonyl)phenyl)-1H-imidazo[4,5-c]pyridine], the IC50 at human TLR9 was found to be 0.13 µM; on human TLR7, 1.1 µM; against human TLR8, 3.7 µM.
As for `CC(C)N1CC2(CCN(c3ccc(-c4cc5c(cn4)nc(-c4ccc(S(C)(=O)=O)cc4)n5C4CC4)cc3)CC2)C1` [Example 62, 1-cyclopropyl-6-(4-(2-isopropyl-2,7-diazaspiro[3.5]nonan-7-yl)phenyl)-2-(4-(methylsulfonyl)phenyl)-1H-imidazo[4,5-c]pyridine], the concentration for half-maximal inhibition (IC50) was 0.25 µM at human TLR9, 5.1 µM at human TLR7 and 1.2 µM at human TLR8.
For `Cc1nc(-c2ccc(C3CCN(CC4COC4)CC3)cc2)cc2c1nc(-c1ccc(S(C)(=O)=O)cc1)n2C` [Example 29, 1,4-dimethyl-2-(4-(methylsulfonyl)phenyl)-6-(4-(1-(oxetan-3-ylmethyl)piperidin-4-yl)phenyl)-1H-imidazo[4,5-c]pyridine] the same measures were 1.1 µM, 13 µM and > 50 µM.
For `Cc1nc(-c2ccc(N3CCC(N4CCCC4)CC3)cc2)cc2c1nc(-c1ccc(S(C)(=O)=O)cc1)n2C` [Example 41, 1,4-dimethyl-2-(4-(methylsulfonyl)phenyl)-6-(4-(4-(pyrrolidin-1-yl)piperidin-1-yl)phenyl)-1H-imidazo[4,5-c]pyridine] the same measures were 0.11 µM, 5.8 µM and > 50 µM.
On to `CS(=O)(=O)c1ccc(-c2nc3cnc(-c4ccc(N5CCN(CCN6CCOCC6)CC5)cc4)cc3n2C2CC2)cc1` [Example 56, 4-(2-(4-(4-(1-cyclopropyl-2-(4-(methylsulfonyl)phenyl)-1H-imidazo[4,5-c]pyridin-6-yl)phenyl)piperazin-1-yl)ethyl)morpholine], for which the IC50 against human TLR9 is 0.88 µM; at human TLR7, > 50 µM; on human TLR8, 46 µM.
With `COc1ccc(-c2nc3c(C)nc(-c4ccc(N5C[C@H]6CN(CC(C)C)C[C@H]6C5)cc4)cc3n2C)cc1OC` [Example 65, 2-(3,4-dimethoxyphenyl)-6-(4-((3aR,6aS)-5-isobutylhexahydropyrrolo[3,4-c]pyrrol-2(1H)-yl)phenyl)-1,4-dimethyl-1H-imidazo[4,5-c]pyridine], the IC50 is 0.059 µM at human TLR9, 5.4 µM at human TLR7 and > 50 µM at human TLR8.
